Assay results as given in patent US20150289512A1, “METHOD FOR PROMOTING PLANT GROWTH” (SUMITOMO CHEMICAL COMPANY, LIMITED, priority 2012, published 2015).

How the values were obtained:
Format in all cases: in vivo
[1] = system: Rice (variety: Nipponbare); experiment: Test Example 1: promotion of root growth by hydroponics of rice, 10 ppm; conditions: Oryza sativa, hydroponic solution containing the test compound at 10 ppm, average of 4 or 5 individuals, read-out: Relative value of length of seminal root (%-untreated control plot)
Experimental: (§1) Test for Evaluating Promotion of Root Growth by Hydroponics of Rice
(§2) Rice (variety: Nipponbare)
(§3) Rice seeds were soaked in a 1% aqueous sodium hypochlorite solution for 10 minutes, then soaked in a 70% ethanol solution for surface sterilization, and then washed with distilled water. The sterilized seeds were soaked in a hydroponic solution containing the test compound described above at 10 ppm and incubated in a dark place for 3 days at 28° C. to perform treatment for hastening germination.
(§4) Thereafter, 30 ml of hydroponic solution containing the test compound at 10 ppm was dispensed in a plastic tube (diameter of 20 mm×height of 113 mm) of which the side was covered with cardboard to block light. A float prepared using a styrene board and vinyl mesh was floated, and the rice seeds that had undergone the treatment for hastening germination were placed on the float on the surface of the hydroponic solution. The seeds were cultivated for 3 days at 26° C., an illuminance of 4,000 lux of the top surface of the tube, a humidity of 50%, and a day length of 16 hours.
(§5) The nursery plants of rice obtained after culturing were measured in terms of the length of seminal root by using WinRHIZO system (manufactured by Regent Instruments Inc). For each test plot, an average of the measured values of the seminal root of 4 or 5 individuals was determined.

Nicotiana benthamiana [2] = experiment: Test Example 6: growth promotion under low-temperature stress by hydroponics of Nicotiana benthamiana, 0.1 ppm; conditions: 0.1 ppm in medium, low-temperature stress 7 days at 1.5±1.0° C., green leaf area 3 days later, equation (1)
Experimental: (§6) Test for Evaluating Growth Promotion Under Low-Temperature Stress by Hydroponics of Nicotiana benthamiana
A DMSO solution, which contained one of the compounds 3, 7, 14, 16, 36, 39, 43, 45, 50, 52, 53, 54, 56, 57, 62, 63, 64, 65, 68, 69, 70, 71, 73, 74, 76, 77, 79, 80, 81, 84, 85, 86 and 87 of the present invention at a concentration of 100 ppm, was prepared. The DMSO solution of the compound of the present invention was added at a volume ratio of 1/1,000 to the Murashige•Scoog medium of a ½-fold concentration for the Murashige•Scoog medium (a medium containing 2.3 g of mixed salts (manufactured by Wako Pure Chemical Industries, Ltd.), 200 mg of Myo-inositol (manufactured by Sigma-Aldrich Co. LLC.), 2 mg of nicotinic acid (manufactured by Wako Pure Chemical Industries, Ltd.), 2 mg of pyridoxine hydrochloride (manufactured by Wako Pure Chemical Industries, Ltd.), 20 mg of thiamine hydrochloride (manufactured by Wako Pure Chemical Industries, Ltd.), 20 g of sucrose (manufactured by Wako Pure Chemical Industries, Ltd.), and 1 g of MES (manufactured by DOJINDO LABORATORIES) per 1 L of water and having pH adjusted to 5.8), thereby preparing a medium containing the compound of the present invention at a concentration of 0.1 ppm.
(§7) Seeds of Nicotiana benthamiana were seeded in the 5 μL of the medium and cultured overnight at 22° C. Thereafter, 45 μL of the medium containing the compound of the present invention at a concentration of 0.1 ppm was added thereto, and the seeds are cultivated for 7 days at 22° C., an illuminance of 4,000 lux, and a day length of 16 hours, and the nursery plants raised from the Nicotiana benthamiana were treated with the compound. Moreover, instead of the above medium a test plot, which was obtained by performing the same treatment by using a medium prepared by adding DMSO to the Murashige•Scoog medium of ½-fold concentration at a volume ratio of 1/1,000, was used as a control plot not treated with the compound.
(§8) The nursery plants of the Nicotiana benthamiana treated with the compound were subjected to low-temperature treatment by being cultivated for 7 days at 1.5±1.0° C., an illuminance of 2,000 lux, and a day length of 16 hours.
The nursery plants of the Nicotiana benthamiana having undergone the low-temperature stress treatment were cultivated for 3 days at 22° C., an illuminance of 4,000 lux, and a day length of 16 hours. Thereafter, the area of green leaf was quantified by Scanalyzer HTS (manufactured by LemnaTec GmbH). Moreover, the value of the control plot not treated with the compound that had not yet been subjected to the low-temperature stress treatment was measured in the same manner. A value of a relative leaf area was calculated based on the following equation (1), and if the value of a relative leaf area was 5 or greater, the compound was evaluated to have a mitigating effect. As a result of the evaluation, it was confirmed that when the plant was treated with one of the compounds 3, 7, 14, 16, 36, 39, 43, 45, 50, 52, 53, 54, 56, 57, 62, 63, 64, 65, 68, 69, 70, 71, 73, 74, 76, 77, 79, 80, 81, 84, 85, 86 and 87 of the present invention at 0.1 ppm, the value of a relative leaf area was 5 or greater, compared to the area of green leaf of the control plot not treated with compound. Accordingly, it was confirmed that the treatment using the compound of the present invention brings about a growth promotion effect.
(§9) Relative leaf area=100*(a green area of a plot treated with the compound of the present invention−a green area of a control plot not treated with the compound of the present invention)/(a green area of a control plot not treated with the compound of the present invention that has not yet been subjected to low-temperature stress treatment−green area of a control plot not treated with the compound of the present invention) Equation (1): […]

Nicotiana benthamiana [3] = experiment: Test Example 4: growth promotion under low-temperature stress by hydroponics of Nicotiana benthamiana, 10 ppm; conditions: 10 ppm in medium, low-temperature stress 7 days at 1.5±1.0° C., green leaf area 3 days later, equation (1)
Experimental: as §6
A DMSO solution, which contained one of the compounds 1, 8, 9, 13, 18, 19, 22, 23, 29, 32, 33, 34, 39, 40, 41, 43, 44, 51, 53, 54, 55, 56, 58, 60, 62, 63, 64, 65, 67, 69, 71, 73, 74, 75, 77, 79, 82, 83 and 86 of the present invention at a concentration of 10,000 ppm, was prepared. The DMSO solution of the compound of the present invention was added at a volume ratio of 1/1,000 to the Murashige•Scoog medium of a ½-fold concentration (a medium containing 2.3 g of mixed salts for the Murashige•Scoog medium (manufactured by Wako Pure Chemical Industries, Ltd.), 200 mg of Myo-inositol (manufactured by Sigma-Aldrich Co. LLC.), 2 mg of nicotinic acid (manufactured by Wako Pure Chemical Industries, Ltd.), 2 mg of pyridoxine hydrochloride (manufactured by Wako Pure Chemical Industries, Ltd.), 20 mg of thiamine hydrochloride (manufactured by Wako Pure Chemical Industries, Ltd.), 20 g of sucrose (manufactured by Wako Pure Chemical Industries, Ltd.), and 1 g of MES (manufactured by DOJINDO LABORATORIES) per 1 L of water and having pH adjusted to 5.8), thereby preparing a medium containing the compound of the present invention at a concentration of 10 ppm.
as §7, with “of 10” for “of 0.1”, “above medium,” for “above medium”
as §8
The nursery plants of the Nicotiana benthamiana having undergone the low-temperature stress treatment were cultivated for 3 days at 22° C., an illuminance of 4,000 lux, and a day length of 16 hours. Thereafter, the area of green leaf was quantified by Scanalyzer HTS (manufactured by LemnaTec GmbH). Moreover, the value of the control plot not treated with the compound that had not yet been subjected to the low-temperature stress treatment was measured in the same manner. A value of a relative leaf area was calculated based on the following equation (1), and if the value of a relative leaf area was 5 or greater, the compound was evaluated to have a mitigating effect. As a result of the evaluation, it was confirmed that when the plant was treated with one of the compounds 1, 8, 9, 13, 18, 19, 22, 23, 29, 32, 33, 34, 39, 40, 41, 43, 44, 51, 53, 54, 55, 56, 58, 60, 62, 63, 64, 65, 67, 69, 71, 73, 74, 75, 77, 79, 82, 83 and 86 of the present invention at 10 ppm, the value of a relative leaf area was 5 or greater, compared to the area of green leaf of the control plot not treated with compound. Accordingly, it was confirmed that the treatment using the compound of the present invention brings about a growth promotion effect.
as §9, with “treatment−a green” for “treatment−green”

[4] = system: Rice (variety: Nipponbare); experiment: Test Example 3: promotion of root growth by hydroponics of rice, 0.1 ppm; conditions: Oryza sativa, hydroponic solution containing the test compound at 0.1 ppm, average of 4 or 5 individuals, read-out: Relative value of length of seminal root (%-untreated control plot)
Experimental: as §1, §2
A DMSO solution, which contained one of the compounds 2, 6, 7, 16, 20, 33, 34, 36, 37, 38, 40, 41, 43, 44, 45, 46, 47, 48, 50, 51, 52, 53, 54, 55, 56, 61, 64, 67, 68, 71, 72, 73, 74, 75, 76, 79, 80, 81 and 83 of the present invention at a concentration of 1,000 ppm, was added to Hoagland hydroponic solution (Hoagland and Arnon, California Agricultural Experiment Station 1950 Circular 347 pp. 34) of ¼-fold concentration at a volume ratio of 1/10,000. In this manner, hydroponic solutions containing one of the compounds 2, 6, 7, 16, 20, 33, 34, 36, 37, 38, 40, 41, 43, 44, 45, 46, 47, 48, 50, 51, 52, 53, 54, 55, 56, 61, 64, 67, 68, 71, 72, 73, 74, 75, 76, 79, 80, 81 and 83 of the present invention at 0.1 ppm were prepared respectively. As an untreated control plot, a hydroponic solution obtained by adding DMSO to Hoagland hydroponic solution of ¼-fold concentration at a volume ratio of 1/10,000 was used.
as §3, with “at 0.1” for “at 10”
as §4, with “0.1” for “10”
as §5

| SMILES | change in vivo at 10 ppm [1] | relative leaf area (% of untreated control) at 0.1 ppm (Nicotiana benthamiana [2]) | relative leaf area at 10 ppm (Nicotiana benthamiana [3]) | change in vivo at 0.1 ppm [4] |
| --- | --- | --- | --- | --- |
| COC(=O)c1oc2ccccc2c1N [Compound 57] | > 5% | ≥ 5% | – | – |
| O=C(O)c1nc2ccccc2[nH]1 [Compound 18] | > 5% | – | ≥ 5% | – |
| COC(=O)c1oc2ccccc2c1NC=O [Compound 81] | > 5% | ≥ 5% | – | > 5% |
